Laboratory results: patent publication US20260271949A1, “PHOTOSENSITIZER COMPOSITIONS, DEVICES, AND METHODS OF USE FOR SURFACE SANITIZATION OF PROCESSED FOOD PRODUCTS” (ONDINE INTERNATIONAL AG, priority 2023, published 2026)

Columns and labels:
S. enterica biofilms [1] = test: MBEC (turbidity assay), biofilm recovery plate; assay type: cell-based, Salmonella enterica; conditions: Blue 470 nm (Erythrosin B: Green 527 nm)
Procedure: (§1) The saturated bacterial cultures were diluted 1:10,000 to an approximate density of 10^5 CFU/mL. Density was confirmed by an inoculum check. The inoculum was poured into a sterile reagent reservoir. Using a multi-channel pipette, 200 μL of the ~105 inoculum was added to each well from rows A to G of the MBEC™ device, as indicated in FIGS. 2A-2C (12 devices per organism were tested; 4 devices per study day), 200 μL of OSB was added to row H to act as sterility controls (SC). The pegged lid was then placed into the microtiter plate and sealed in a plastic bag.
(§2) The pegs of the MBEC lid were rinsed for 120 seconds.
(§3) Using additional sterile 96-well receiver plates, recovery plates were prepared (one per MBEC lid) containing 225 μL per well of the neutralizer/recovery broth, as described above. The MBEC lids were transferred to the recovery broth, and the plates (with the pegged lids) were transferred into a stainless-steel insert tray, which sat in the water of a bath sonicator. Sonication was performed on high for 30 minutes to dislodge surviving biofilm. The pegged lid was then removed and discarded.
(§4) 125 μL of OSB was added to each well of the recovery plates to top back up to 225 µL per well. The contents of the wells were mixed by pipetting up and down.

MRSA biofilms [2] = test: Quantitative determination of MBEC (Log10 reduction assay); assay type: cell-based, Staphylococcus aureus; conditions: for concentration of optimal efficacy: MRSA biofilm; for Quant. MBEC / log 10 reduction in biofilm CFUs: MRSA; for Quant. MBEC: >4 log10 reduction, PS alone, Blue 470 nm (Erythrosin B: Green 527 nm)
Procedure: (§5) One hundred microlitres was removed from each well of row A of the recovery plate into row A of an appropriately labelled 96-well dilution plate; 100 μL was removed from row B of this recovery plate into row A of another 96-well dilution plate. This was repeated for other utilized MBEC rows (total: up to 8 dilution plates per MBEC recovery plate). These plates were kept for the “Quantitative Determination of MBEC (Log10 Reduction Assay)” described below.
(§6) 180 μL of sterile 0.9% saline was added to each well of rows B-H of the 96-well dilution plates prepared as described above. The sample in row A was then serially diluted in the saline in rows B-H and spot plated on OSA.
(§7) The quantitative MBEC was defined as the minimum concentration of test article that yielded a particular log 10 reduction in biofilm CFUs. For MRSA, >4 log 10 reduction (which corresponds to >99.99% reduction); for S. enterica, >3 log 10 reduction (which corresponds to >99.9% reduction) or, where recovery from the VC controls was <3 log 10, “max kill”.
(§8) Quantitative MBEC results were determined using log 10 reduction. Generally, the appropriate number of colonies were counted on the spot plates according to the plating method used. An appropriate number of colonies that was considered appropriate for counting was a 20 μL spot where the individual colonies were visibly distinct from each other within the plated spot (typically 5-50 colonies). The section in which this spot was located gave the order of magnitude for the cell enumeration: 100-107.

[3] = tested on: Salmonella enterica Serotype Choleraesuis (ATCC 10708); test: Planktonic MBC (turbidity assay), MBEC Assay challenge plate outgrowth; assay type: cell-based; conditions: S. enterica, PS alone, Blue 470 nm (Erythrosin B: Green 527 nm)
[4] = Coloration of challenge plates under green irradiation; assay type: physicochemical; conditions: green irradiation 2, 5, 10 min vs dark, most evident for 0.01% and 0.001%
Procedure: FIG. 5 provides representative photographs showing coloration of challenge plates for the Green-irradiated PS (Erythrosin B) under dark conditions and with green irradiation for 2 min, 5 min and 10 min. The highest tested concentration of Erythrosin B (i.e., 1% w/v) was beet red in color, with the 1:1,000 dilution (i.e., 0.001% w/v) yielding a light pink color and minimal coloration remaining by the 1:10,000 dilution (i.e., 0.0001% w/V) (FIG. 5; left).

MRSA biofilms [5] = test: MBEC (turbidity assay), biofilm recovery plate; assay type: cell-based, Staphylococcus aureus; conditions: Blue 470 nm (Erythrosin B: Green 527 nm)
Procedure: as §1, §2, §3, §4

S. enterica biofilms [6] = test: Quantitative determination of MBEC (Log10 reduction assay); assay type: cell-based, Salmonella enterica; conditions: for concentration of optimal efficacy: S. enterica biofilm; for Quant. MBEC / log 10 reduction in biofilm CFUs: S. enterica; for Quant. MBEC: >3 log10 reduction or max kill, PS alone, Blue 470 nm (Erythrosin B: Green 527 nm)
Procedure: as §5, §6, §7, §8

[7] = tested on: Staphylococcus aureus (MRSA) 456 S. Yanke; test: Planktonic MBC (turbidity assay), MBEC Assay challenge plate outgrowth; conditions: Blue 470 nm (Erythrosin B: Green 527 nm)
[8] = fluence 0 (Dark) J/cm^2, PS alone
[9] = PS at 0.01%, 10 minutes of green irradiation (51.0 J/cm^2)
[10] = PS at 0.1%, 5 minutes of green irradiation (25.5 J/cm^2)
[11] = Blue-irradiated, tested individually (FIG. 8 Panels A-C)
[12] = Blue-irradiated, tested individually (FIG. 7 Panels A-C)
[13] = PS at 0.1%, 5 minutes of blue irradiation (51.0 J/cm^2)

Structure (SMILES) | MBEC (S. enterica biofilms [1]; [8]) | MBEC (S. enterica biofilms [1]; fluence 10.2 J/cm^2, PS alone) | MBEC (S. enterica biofilms [1]; fluence 25.5 J/cm^2, PS alone) | Quant. MBEC (MRSA biofilms [2]; fluence 0 (Dark) J/cm^2) | Quant. MBEC (MRSA biofilms [2]; fluence 10.2 J/cm^2) | MBC ([3]; fluence 0 (Dark) J/cm^2) | MBC ([3]; fluence 10.2 J/cm^2) | MBEC (MRSA biofilms [5]; [8]) | Quant. MBEC (S. enterica biofilms [6]; fluence 0 (Dark) J/cm^2) | Quant. MBEC (S. enterica biofilms [6]; fluence 10.2 J/cm^2) | Quant. MBEC (S. enterica biofilms [6]; fluence 25.5 J/cm^2) | Quant. MBEC (S. enterica biofilms [6]; fluence 51.0 J/cm^2) | concentration of optimal efficacy (MRSA biofilms [2]; [11]) | Quant. MBEC (MRSA biofilms [2]; fluence 25.5 J/cm^2) | Quant. MBEC (MRSA biofilms [2]; fluence 51.0 J/cm^2) | MBC ([3]; fluence 25.5 J/cm^2) | MBEC (MRSA biofilms [5]; fluence 10.2 J/cm^2, PS alone) | MBEC (MRSA biofilms [5]; fluence 25.5 J/cm^2, PS alone) | concentration of optimal efficacy (S. enterica biofilms [6]; [12]) | MBC [7, 8] | also measured
O=C1OC2(c3ccccc31)c1cc(I)c(O)c(I)c1Oc1c2cc(I)c(O)c1I [PS4, Erythrosin B] | >1 % w/V | 0.01 (Ø) % w/V | 0.01 (Ø) % w/V | >1 % w/V | 0.01 % w/V | >1 % w/V | 0.01 (Ø) % w/V | >1 % w/V | >1 % w/V | >1 % w/V | 0.1 % w/V | 0.01 % w/V |  |  |  |  |  |  |  |  | concentration of optimal efficacy (MRSA biofilms [2]; Green irradiation, 10.2 J/cm^2 (FIG. 9)): 0.01%; concentration of optimal efficacy (MRSA biofilms [2]; Green irradiation, 25.5 J/cm^2 (FIG. 9)): 0.1%; log 10 reduction in biofilm CFUs (MRSA biofilms [2]; [9]): max kill; log 10 reduction in biofilm CFUs (MRSA biofilms [2]; [10]): 5.28 log 10; coloration upon irradiation [4]: lost coloration with increasing irradiation time; concentration of optimal efficacy (S. enterica biofilms [6]; Green irradiation, 51.0 J/cm^2 (FIG. 9)): 0.01%; log 10 reduction in biofilm CFUs (S. enterica biofilms [6]; [9]): max kill; log 10 reduction in biofilm CFUs (S. enterica biofilms [6]; [10]): max kill
COc1cc(/C=C/C(=O)CC(=O)/C=C/c2ccc(O)c(OC)c2)ccc1O [PS3, Curcumin] | >0.001 % w/V | >0.001 % w/V | >0.001 % w/V | >0.001 % w/V | >0.001 % w/V | >0.001 % w/V | >0.001 % w/V | >0.001 % w/V | >0.001 % w/V | >0.001 % w/V | >0.001 % w/V | 0.0001 % w/V | 0.001 % w/v | >0.001 % w/V | 0.001 % w/V | >0.001 % w/V | >0.001 % w/V | >0.001 % w/V | 0.0001 % w/v | >0.001 % w/V | MBEC (S. enterica biofilms [1]; fluence 51.0 J/cm^2, PS alone): >0.001 % w/V; MBC ([3]; fluence 51.0 J/cm^2): >0.001 % w/V; MBEC (MRSA biofilms [5]; fluence 51.0 J/cm^2, PS alone): >0.001 % w/V; MBC ([7]; fluence 10.2 J/cm^2, PS alone): >0.001 % w/V; MBC ([7]; fluence 25.5 J/cm^2, PS alone): >0.001 % w/V
Cc1cc2nc3c(=O)[nH]c(=O)nc-3n(C[C@H](O)[C@H](O)[C@H](O)COP(=O)([O-])O)c2cc1C.[Na+] [PS1, Riboflavin-5′-Phosphate Sodium USP] | >1 % w/V | >1 % w/V | >1 % w/V | >1 % w/V | >1 % w/V | >1 % w/V | >1 % w/V | >1 % w/V | >1 % w/V | >1 % w/V | >1 % w/V | 0.1 % w/V | 0.1 % w/v | >1 % w/V | 0.1 % w/V | >1 % w/V | >1 % w/V | >1 % w/V | 0.1 % w/v | >1 % w/V | log 10 reduction in biofilm CFUs (MRSA biofilms [2]; [13]): 5.36 log 10; MBEC (MRSA biofilms [5]; fluence 51.0 J/cm^2, PS alone): 0.1 (Ø) % w/V; log 10 reduction in biofilm CFUs (S. enterica biofilms [6]; [13]): max kill; MBC ([7]; fluence 10.2 J/cm^2, PS alone): >1 % w/V; MBC ([7]; fluence 25.5 J/cm^2, PS alone): 0.1 (Ø) % w/V
O=S(=O)([O-])c1ccc(N=Nc2c(O)ccc3cc(S(=O)(=O)[O-])ccc23)cc1.[Na+].[Na+] [PS2, Sunset Yellow FCF] | >1 % w/V | >1 % w/V | >1 % w/V | >1 % w/V | >1 % w/V | >1 % w/V | >1 % w/V | >1 % w/V | >1 % w/V | >1 % w/V | >1 % w/V | 0.001 % w/V | 0.01 % w/v | >1 % w/V | 0.01 % w/V | >1 % w/V | >1 % w/V | >1 % w/V | 0.001 % w/v | >1 % w/V | MBC ([7]; fluence 10.2 J/cm^2, PS alone): >1 % w/V; MBC ([7]; fluence 25.5 J/cm^2, PS alone): >1 % w/V
